# Test results taken from patent publication US8338480B2, “Combination treatment of metabolic disorders” (Wellstat Therapeutics Corporation, priority 2006, dated 2012).
# Counter-ions that a name gives are not always drawn. Marks after values point to notes of the source that are not given here.
# Tests used:
# Format in all cases: in vivo
# db/db mice [1] = experiment: Serum glucose in db/db mice after two weeks (Example 4)
# Method: (§1) • 8. Vehicle (1% hydroxypropylmethylcellulose) • 9. Compound BI 100 mg/kg • 10. Rosiglitazone (RSG) 3 mg/kg • 11. Compound BI 100 mg/kg+RSG 3 mg/kg • 12. Compound CF 100 mg/kg • 13. Compound CF 100 mg/kg+RSG 3 mg/kg • 14. Compound CT 100 mg/kg+RSG 3 mg/kg • 15. […]
# (§2) After two weeks, blood samples were collected from the retro-orbital sinus and processed for serum chemistry measurements.
# db/db mice [2] = experiment: Serum glucose in db/db mice, combinations with rosiglitazone or pioglitazone, 4 weeks (Example 5); details: 4 weeks oral once per day
# Method: (§3) Male db/db mice have a defect in the receptor for the appetite-regulating protein leptin and consequently develop hyperphagia, obesity, insulin resistance, hyperglycemia, hypertriglyceridemia. Male db/db mice are an accepted animal model for Type II diabetes. The effect of a range of single daily doses of orally administered Compound BI was assessed in this model, and the efficacy of rosiglitazone alone and in combination with Compound BI was also examined.
# Male C57BL/Ksola db/db mice (“db/db mice”) were obtained from Harlan (Indianapolis, Ind.) and allowed to acclimate for a minimum of one week.
# (§4) Body weights and blood glucose levels were measured and animals were sorted groups of 6-7 mice with equivalent mean body weights in each group. […].
# • 12. Vehicle • 13. Compound BI 100 mg/kg/day • 14. Rosiglitazone 3 mg/kg • 15. Rosiglitazone 3 mg/kg+Compound BI 100 mg/kg • 16. Pioglitazone 30 mg/kg • 17. Pioglitazone 30 mg/kg+Compound BI 100 mg/kg • 18. Pioglitazone 100 mg/kg • 19. Pioglitazone 100 mg/kg+Compound BI 100 mg/kg
# (§5) Drug preparation: Compound BI was suspended in a vehicle comprising 1% aqueous hydroxypropylmethylcellulose, using a tissue homogenizer to minimize particle size and maximize uniformity of the suspension. Pioglitazone and rosiglitazone were suspended in the same vehicle after pulverization of commercial tablets of each of these drugs. Drug concentrations in the dosing suspension for each treatment group were adjusted according to body weights so that a constant volume of 0.4 ml provided appropropriate drug doses in all groups.
# (§6) Drug Administration: Drugs were administered orally by gavage once per day for 28 days.
# Blood sampling: For serum chemistry analysis, nonfasting blood samples (200 microliters) were obtained via the retro-orbital sinus and collected in serum separator tubes at 11 AM on day 28 after initiation of drug administration.
# db/db mice [3] = experiment: Serum glucose and triglycerides in db/db mice treated for 4 weeks (Example 2); details: for Serum Glucose Mean / Serum Triglycerides Mean: 4 weeks oral gavage once per day
# Method: as §3
# Male C57BL/Ksola db/db mice (“db/db mice”) were obtained from Harlan (Indianapolis, Ind.) and allowed to acclimate for a minimum of one week. […] Male C57BL/6 mice of the same age were used as lean nondiabetic controls.
# as §4
# (§7) • 1. Lean Control (no treatment) • 2. Vehicle • 3. Compound BI 30 mg/kg/day • 4. Compound BI 100 mg/kg/day • 5. Compound BI 150 mg/kg/day • 6. Rosiglitazone 3 mg/kg • 7. Rosiglitazone 3 mg/kg+Compound BI 30 mg/kg • 8. Rosiglitazone 3 mg/kg+Compound BI 100 mg/kg • 9. Rosiglitazone 20 mg/kg • 10. Rosiglitazone 20 mg/kg+Compound BI 30 mg/kg • 11. Rosiglitazone 20 mg/kg+Compound BI 100 mg/kg
# as §5, with “Rosiglitazone was” for “Pioglitazone and rosiglitazone were”, “vehicle.” for “vehicle after pulverization of commercial tablets of each of these drugs.”
# as §6
# Blood sampling: For serum chemistry analysis, nonfasting blood samples (200 microliters) were obtained via the retro-orbital sinus and collected in serum separator tubes at 11 AM on days 14 and 28 after initiation of drug administration.
# Male C57B1/6 mice = experiment: Food intake and body weight of male C57Bl/6 mice under restricted feeding (Example 3); details: for Post-treatment Food Intake (5 Hour): 5 hour meal; for Change in Body weight % / Change in Body weight (grams ± SEM) / Post-treatment Body weight: restricted feeding
# Method: Animals. […] Food was withheld for the remainder of each day. Because of the restricted feeding time, the mice eat less than under ad libitum food availability. Therefore, reduction of food intake in this model requires a drug effect sufficient to overcome the hunger stimulus provided by subnormal daily food intake. Drug Administration. Groups of 10 mice each (individually weighed and marked, divided into 5/cage and trained and monitored as above; were dosed once per day with Compound BI (100 mg/kg), rosiglitazone (3 mg/kg), both drugs, or vehicle by oral gavage at 8 AM for four consecutive days. Comparator groups receiving appetite modulators not suitable for oral dosing (PYY and cerulenin) received intraperitoneal injections at 8 AM for four consecutive days. […] [table]
# db/db mice [4] = experiment: Body weight and food consumption in db/db mice treated for 4 weeks (Example 2); details: for Body Weight (grams) Mean ± SD 4 Weeks / Food Consumption Week 2 / Food Consumption Week 3 / Food Consumption Week 4 / Change in Body Weight (grams): db/db mice; for Change in Body Weight (grams): initial to 4 weeks
# Method: as §3
# Male C57BL/Ksola db/db mice (“db/db mice”) were obtained from Harlan (Indianapolis, Ind.) and allowed to acclimate for a minimum of one week. Animals received Purina 5008 Lab Diet and tap water ad libitum and were housed with 3-4 animals per cage. Male C57BL/6 mice of the same age were used as lean nondiabetic controls.
# as §4, §7
# as §5, with “Rosiglitazone was” for “Pioglitazone and rosiglitazone were”, “vehicle.” for “vehicle after pulverization of commercial tablets of each of these drugs.”
# as §6
# Adiponectin = experiment: Serum adiponectin in db/db mice after two weeks (Example 4); details: for Adiponectin ± SD: db/db mice serum
# Description: Adiponectin is an glycoprotein secreted from white adipose tissue. Adiponectin improves insulin sensitive in other tissues, e.g. muscle and liver, and is also protective against atherosclerosis. Thiazolidinedione antidiabetic agents such as rosiglitazone or pioglitazone act largely via action at the PPAR-gamma, a nuclear receptor involved in regulation of fuel metabolism. PPAR-gamma agonists enhance adiponectin production by adipose tissue, and this may contribute to their beneficial effects in diabetes and related metabolic disorders.
# as §1, §2
# [5] = Compound BI 100 mg/kg oral once per day
# [6] = Rosiglitazone 3 mg/kg oral once per day
compound,measurement,setting,value
"Cc1cccc(C)c1COc1cccc(C(=O)CCC(=O)O)c1 [Compound BI, 4-(3-(2,6-Dimethylbenzyloxy)phenyl)-4-oxobutyric acid]",Glucose ± SD,db/db mice [1]; compound alone 100 mg/kg,206 ± 44 mg/dL
same,Serum Glucose (mg/dL) Mean ± SD,db/db mice [2]; Compound BI 100 mg/kg,376 ± 151 mg/dL
same,Serum Glucose Mean,db/db mice [3]; Compound BI 30 mg/kg,657.8 mg/dL
same,Serum Triglycerides Mean,db/db mice [3]; Compound BI 30 mg/kg,281.2* mg/dL
same,Serum Glucose Mean,db/db mice [3]; Compound BI 100 mg/kg,330.3* mg/dL
same,Serum Triglycerides Mean,db/db mice [3]; Compound BI 100 mg/kg,179.1* mg/dL
same,Serum Glucose Mean,db/db mice [3]; Compound BI 150 mg/kg,271.7* mg/dL
same,Serum Triglycerides Mean,db/db mice [3]; Compound BI 150 mg/kg,177.7* mg/dL
same,"hyperglycemia, hypertriglyceridemia and free fatty acid levels (in words)",db/db mice [3]; combination: rosiglitazone 3 mg/kg/day + Compound BI 30 mg/kg/day,"dose-dependent attenuation of hyperglycemia, hypertriglyceridemia and free fatty acid levels"
same,serum glucose (in words),db/db mice [3]; oral once per day for 28 days,dose dependent reduction of serum glucose
same,Post-treatment Food Intake (5 Hour),Male C57B1/6 mice; [5],2.00 ± 0.18 grams
same,Change in Body weight %,Male C57B1/6 mice; [5],−1.90 ± 0.73%
same,Change in Body weight (grams ± SEM),Male C57B1/6 mice; [5],−0.40 ± 0.15 grams
same,Post-treatment Body weight,Male C57B1/6 mice; [5],20.57 ± 0.51 grams
same,body weight and food intake (in words),"db/db mice [4]; Compound BI 30 mg/kg, RSG 3 mg/kg, alone or combined",little effect on body weight and food intake
same,Body Weight (grams) Mean ± SD 4 Weeks,"db/db mice [4]; 4 Weeks oral once per day, Compound BI 30 mg/kg",50.3 ± 2.1 grams
same,Body Weight (grams) Mean ± SD 4 Weeks,"db/db mice [4]; 4 Weeks oral once per day, Compound BI 150 mg/kg",47.4 ± 2.7 grams
same,Body Weight (grams) Mean ± SD 4 Weeks,"db/db mice [4]; 4 weeks oral once per day, Compound BI 100 mg/kg",47.8 ± 3.6 grams
same,Food Consumption Week 2,db/db mice [4]; Compound BI 30 mg/kg,5.3 grams/24 hr/mouse
same,Food Consumption Week 2,db/db mice [4]; Compound BI 100 mg/kg,3.6 grams/24 hr/mouse
same,Food Consumption Week 2,db/db mice [4]; Compound BI 150 mg/kg,3.1 grams/24 hr/mouse
same,Food Consumption Week 3,db/db mice [4]; Compound BI 30 mg/kg,4.9 grams/24 hr/mouse
same,Food Consumption Week 3,db/db mice [4]; Compound BI 100 mg/kg,3.7 grams/24 hr/mouse
same,Food Consumption Week 3,db/db mice [4]; Compound BI 150 mg/kg,4.1 grams/24 hr/mouse
same,Food Consumption Week 4,db/db mice [4]; Compound BI 30 mg/kg,5.6 grams/24 hr/mouse
same,Food Consumption Week 4,db/db mice [4]; Compound BI 100 mg/kg,5.1 grams/24 hr/mouse
same,Food Consumption Week 4,db/db mice [4]; Compound BI 150 mg/kg,6 grams/24 hr/mouse
same,Change in Body Weight (grams),db/db mice [4]; Compound BI 30 mg/kg,+8.4 grams
same,Change in Body Weight (grams),db/db mice [4]; Compound BI 100 mg/kg,+6.3 grams
same,Change in Body Weight (grams),db/db mice [4]; Compound BI 150 mg/kg,+6.6 grams
same,Adiponectin ± SD,Adiponectin; compound alone 100 mg/kg,9.3 ± 4.8 micrograms/ml
same,effect on adiponectin with concurrent rosiglitazone (in words),"Adiponectin; db/db mice, 100 mg/kg + RSG 3 mg/kg",strongly amplify the effect of concurrent rosiglitazone on adiponectin
same,"serum adiponectin, individual agents (in words)","Adiponectin; db/db mice, agent alone",did not elevate serum adiponectin levels
"CN(CCOc1ccc(CC2SC(=O)NC2=O)cc1)c1ccccn1 (stereo not drawn) [RSG, rosiglitazone maleate, reference compound]",Glucose ± SD,db/db mice [1]; RSG 3 mg/kg alone,258 ± 74 mg/dL
same,Serum Glucose (mg/dL) Mean ± SD,db/db mice [2]; RSG 3 mg/kg,432 ± 138 mg/dL
same,Serum Glucose Mean,db/db mice [3]; RSG 3 mg/kg,382.8 mg/dL
same,Serum Triglycerides Mean,db/db mice [3]; RSG 3 mg/kg,99.2* mg/dL
same,Serum Glucose Mean,db/db mice [3]; RSG 20 mg/kg,344.7 mg/dL
same,Serum Triglycerides Mean,db/db mice [3]; RSG 20 mg/kg,117.3* mg/dL
same,Post-treatment Food Intake (5 Hour),Male C57B1/6 mice; [6],2.21 ± 0.15 grams
same,Change in Body weight %,Male C57B1/6 mice; [6],−0.55 ± 0.44%
same,Change in Body weight (grams ± SEM),Male C57B1/6 mice; [6],−0.12 ± 0.09 grams
same,Post-treatment Body weight,Male C57B1/6 mice; [6],20.76 ± 0.39 grams
same,Body Weight (grams) Mean ± SD 4 Weeks,"db/db mice [4]; 4 Weeks oral once per day, RSG 20 mg/kg",51.4 ± 1.4 grams
same,Body Weight (grams) Mean ± SD 4 Weeks,"db/db mice [4]; 4 weeks oral once per day, RSG 3 mg/kg",48.2 ± 2.6 grams
same,Food Consumption Week 2,db/db mice [4]; RSG 3 mg/kg,5.3 grams/24 hr/mouse
same,Food Consumption Week 2,db/db mice [4]; RSG 20 mg/kg,5.4 grams/24 hr/mouse
same,Food Consumption Week 3,db/db mice [4]; RSG 3 mg/kg,4.0 grams/24 hr/mouse
same,Food Consumption Week 3,db/db mice [4]; RSG 20 mg/kg,5.9 grams/24 hr/mouse
same,Food Consumption Week 4,db/db mice [4]; RSG 3 mg/kg,4.8 grams/24 hr/mouse
same,Food Consumption Week 4,db/db mice [4]; RSG 20 mg/kg,6.3 grams/24 hr/mouse
same,Change in Body Weight (grams),db/db mice [4]; RSG 3 mg/kg,+6.4 grams
same,Change in Body Weight (grams),db/db mice [4]; RSG 20 mg/kg,+10.3 grams
same,Adiponectin ± SD,Adiponectin; RSG 3 mg/kg alone,12.3 ± 3.0 micrograms/ml
